Where two headings read alike, the source gives them in different places.
Legend:
H2122 = assay: Cell viability dose-response, H2122; format: cell-based, human; details: read-out: IC50 (uM) vs indicated non-small cell lung cancer cell line H2122
Summary of the method: (§1)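 Viability read as total ATP (Cell Titer Glo) following 4 days' compound exposure, with IC50 derived from dose-response curves. Duplicate 12-point series, top concentration 50 micromolar with 3-fold steps, on cells seeded at 15% confluence in RPMI-1640, 5% FBS, 2 mM L-glutamine.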

HCC95 = assay: Cell viability dose-response, HCC95; format: cell-based; details: Homo sapiens, Tables 3 and 4, read-out: IC50 (uM) vs indicated non-small cell lung cancer cell line HCC95
Experimental: (§2) FIG. 6A. […] Cell viability is plotted vs. compound concentration. Compound was added to cells plated at 15% confluence in 96-well plates in RPMI-1640 media supplemented with 5% Fetal Bovine Serum and 2 mM L-Glutamine. After 4 days of incubation, ATP levels were measured using Cell Titer Glo (Promega). Data are presented as the average of 2 replicates ±SEM.
(§3) Selectivity may be measured by the half maximal inhibitory concentration (IC50), which, as used herein, is a measure of the effectiveness of a compound in killing cells. This quantitative measure indicates how much of a particular compound is needed to kill a particular cell population by half (e.g., as indicated by the amount of ATP). […] The IC50 can be determined by constructing a dose-response curve. The lower the IC50, the higher the potency, and the greater the difference between IC50 values for different cell lines (e.g., sensitive lines vs. insensitive lines, and sensitive lines vs. normal lines) the greater the selectivity. […]
(§4) With this information, we synthesized and tested a series of small molecules derived in conception from the oxalamide and chromone scaffold including N-acyl ureas, as shown in Tables 6-8. Each compound was tested in a 12-point dose-response study starting at 50 micromolar and decreasing in 3-fold increments to sub-nanomolar concentrations, in duplicate. Additionally, one or more additional cell line was tested in the same way.

HBEC30KT = assay: Cell viability (ATP, Cell Titer Glo, 4 days), HBEC30KT; format: cell-based, human; details: Homo sapiens, Tables 3 and 4; read-out: HBEC30KT IC50
Experimental: as §2, §3

H460 = assay: Cell viability dose-response, H460; format: cell-based; details: Homo sapiens, NCI-H460; Tables 3 and 4; read-out: IC50 (uM) vs indicated non-small cell lung cancer cell line H460
Experimental: as §2, §3, §4

HCC44 = assay: Cell viability dose-response, HCC44; format: cell-based, human; details: read-out: IC50 (uM) vs indicated non-small cell lung cancer cell line HCC44
Summary of the method: (§5)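 Read-out is total cellular ATP, measured with CellTiter-Glo after four days of compound treatment. Cells start at 15% confluence in RPMI-1640 containing 5% FBS and 2 mM L-glutamine. Each point averages two replicates (±SEM).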

H2073 = assay: Cell viability dose-response, H2073; format: cell-based, human; details: read-out: IC50 (uM) vs indicated non-small cell lung cancer cell line H2073
Summary of the method: as §5

H2009 = assay: Cell viability dose-response, H2009; format: cell-based, human; details: Homo sapiens, NCI-H2009; Tables 3 and 4; read-out: IC50 (uM) vs indicated non-small cell lung cancer cell line H2009
Summary of the method: as §5

H1155 = assay: Cell viability dose-response, H1155; format: cell-based; details: Homo sapiens, NCI-H1155; Tables 3 and 4; read-out: IC50 (uM) vs indicated non-small cell lung cancer cell line H1155
Experimental: as §2, §3, §4

H1819 = assay: Cell viability dose-response, H1819; format: cell-based, human; details: Homo sapiens, NCI-H1819, Tables 3 and 4; read-out: IC50 (uM) vs indicated non-small cell lung cancer cell line H1819
Summary of the method: as §1

H1993 = assay: Cell viability dose-response, H1993; format: cell-based; details: Homo sapiens, NCI-H1993; Tables 3 and 4; read-out: IC50 (uM) vs indicated non-small cell lung cancer cell line H1993
Experimental: as §2, §3, §4

H1395 = assay: Cell viability dose-response, H1395; format: cell-based; details: Homo sapiens, NCI-H1395; Tables 3 and 4; read-out: IC50 (uM) vs indicated non-small cell lung cancer cell line H1395
Experimental: as §2, §3, §4

HCC4017 = assay: Cell viability dose-response, HCC4017; format: cell-based, human; details: Homo sapiens, HCC4017, Tables 3 and 4; read-out: IC50 (uM) vs indicated non-small cell lung cancer cell line HCC4017
Experimental: as §2, §3, §4

HCC366 = assay: Cell viability dose-response, HCC366; format: cell-based; details: Homo sapiens, Tables 3 and 4, read-out: IC50 (uM) vs indicated non-small cell lung cancer cell line HCC366
Experimental: as §2, §3, §4

[1] = Homo sapiens, NCI-H2122, Tables 3 and 4
[2] = Homo sapiens, HCC44, Tables 3 and 4
[3] = Homo sapiens, NCI-H2073, Tables 3 and 4

Row | Structure (SMILES) | IC50 (H2122; [1]) | IC50 (HCC95) | IC50 (HBEC30KT) | IC50 (H460) | IC50 (HCC44; [2]) | IC50 (H2073; [3]) | IC50 (H2009) | IC50 (H2073; Tables 3 and 4) | IC50 (H1155) | IC50 (H1819) | IC50 (H1993) | IC50 (H1395) | IC50 (HCC4017) | IC50 (HCC366) | IC50 (H2122; Tables 3 and 4) | IC50 (HCC44; Tables 3 and 4)
1 | COc1ccc2nc(NC(=O)c3ccc([N+](=O)[O-])cc3)sc2c1 [SW001282-2] | 0.159 µM | 19.6 µM | 49.2 µM | 0.512 µM | 30.1 µM | 0.752 µM | 2.81 µM | – | – | – | – | – | – | – | – | –
2 | COC(=O)c1ccc(C(=O)Nc2nc3ccc(N)cc3s2)cc1 [SW001296] | 35.1 µM | – | – | 4.46 µM | 0.34 µM | – | – | 3.72 µM | – | – | – | – | – | – | – | –
3 | O=C(Nc1nc2ccccc2s1)c1ccc(-c2ccccc2)cc1 [SW001811] | 0.7 µM | 58 µM | 348 µM | 450 µM | 165 µM | – | 125 µM | – | 125 µM | 59 µM | 85 µM | 185 µM | 120 µM | 220 µM | – | –
4 | O=C(Nc1nc2ccccc2s1)c1ccc([N+](=O)[O-])cc1 [SW003992] | 0.14 µM | 2270 µM | 1630 µM | – | 3500 µM | 0.65 µM | – | – | 2870 µM | 358 µM | 524 µM | 1580 µM | 1440 µM | 1040 µM | – | –
5 | COc1ccc2sc(NC(=O)c3ccc([N+](=O)[O-])cc3)nc2c1 [SW004969] | 0.21 µM | 0.2 µM | – | 0.521 µM | – | 0.658 µM | 5.5 µM | – | – | – | – | – | – | – | – | –
6 | COc1ccccc1NC(=O)c1sc2ccccc2c1Cl [SW004989] | 0.801 µM | – | – | – | 56.8 µM | 0.052 µM | > 8 µM | – | – | 43.7 µM | > 5 µM | – | 249 µM | – | 1.02 µM | 38.7 µM
7 | O=C(Nc1nc2c(s1)CCCC2)c1ccc(Cc2ccccc2)cc1 [SW011940] | 0.037 µM | 5.86 µM | – | 2.13 µM | 50.6 µM | 2.63 µM | 7 µM | – | 21.7 µM | 46.3 µM | 12.7 µM | 35.6 µM | 4.26 µM | – | – | –
8 | CCN(CC)c1ccc(C(=O)Nc2nc3ccc4ccccc4c3s2)cc1 [SW018825] | 0.129 µM | 2.23 µM | – | – | – | 0.424 µM | – | – | – | – | 47.5 µM | – | – | – | – | –
9 | O=C(Nc1nc2c(s1)CCCC2)c1ccccc1Oc1ccccc1 [SW045964] | 1 µM | 140 µM | 321 µM | – | 489 µM | 3.2 µM | 55 µM | – | 389 µM | 143 µM | 55.9 µM | 620 µM | 407 µM | 149 µM | – | –
10 | Cc1cc(C)nc(SCC(=O)Nc2nc3ccccc3s2)n1 [SW053831] | 47 µM | 85 µM | 60 µM | – | 33 µM | 0.85 µM | 104 µM | – | 43 µM | 63 µM | 29 µM | 65 µM | 98 µM | 80 µM | – | –
11 | CCOC(=O)c1c(NC(=O)c2ccc([N+](=O)[O-])cc2)sc2c1CCCC2 [SW108364-2] | 5.92 µM | – | 35.2 µM | – | 35.2 µM | 24.3 µM | 15.8 µM | – | – | – | 23.4 µM | – | 35.2 µM | – | – | –
12 | O=C(Nc1ccccc1F)c1sc2ccccc2c1Cl [SW118094] | 1.05 µM | – | 34.1 µM | 0.606 µM | 0.09 µM | – | – | – | – | 1.21 µM | – | – | 0.322 µM | 124 µM | – | –
13 | O=C(Nc1ccc(F)c(Cl)c1)c1sc2ccccc2c1Cl [SW118753] | 0.8 µM | 300 µM | 108 µM | – | 265 µM | 0.9 µM | 65 µM | – | 105 µM | 38 µM | 73 µM | 600 µM | 700 µM | 375 µM | – | –
14 | NC(=O)c1c(NC(=O)COc2ccccc2)sc2c1CCCC2 [SW119324] | – | 28.5 µM | 10.4 µM | – | 34.4 µM | – | 0.881 µM | – | 44.5 µM | – | > 8 µM | – | – | – | – | –
15 | O=C(Nc1nc2ccc(F)cc2s1)c1sc2ccccc2c1Cl [SW147703] | 3.3 µM | 32.4 µM | 33.3 µM | – | 37.5 µM | 1.12 µM | 34.5 µM | – | 13.3 µM | – | 13.5 µM | – | – | – | – | –
16 | NC(=O)c1c(NC(=O)c2ccc(Br)o2)sc2c1CCCC2 [SW172864] | – | 43.6 µM | 12.6 µM | 35.1 µM | 2.52 µM | 0.129 µM | 3.2 µM | – | – | – | 0.871 µM | 44.5 µM | 1.71 µM | – | – | –
17 | O=C(Nc1nnc(C2CCCCC2)s1)c1sc2ccccc2c1Cl [SW173997] | 0.27 µM | 23.8 µM | – | 44.5 µM | 23.1 µM | 11.4 µM | 21.5 µM | – | 23.8 µM | 48.5 µM | 16.9 µM | 41.3 µM | 24 µM | 40.9 µM | – | –
18 | O=C(Nc1cccc(F)c1)c1sc2ccccc2c1Cl [SW202550] | 1.91 µM | – | 105 µM | – | 0.566 µM | – | – | – | – | – | – | – | 17.3 µM | – | – | –
19 | COc1ccc2nc(NC(=O)c3cccnc3)sc2c1 [SW202774-1] | 1.08 µM | 0.336 µM | 46.7 µM | 1.31 µM | 1.01 µM | 1.34 µM | 36.6 µM | – | 35.2 µM | – | 25.5 µM | – | – | – | – | –
20 | COc1ccc2nc(NC(=O)c3c(F)ccc(OC)c3F)sc2c1 [SW202775-1] | 6.53 µM | 3.19 µM | – | 48 µM | 16.9 µM | 5.96 µM | – | – | 35.5 µM | – | 8.87 µM | – | – | – | – | –
21 | CCOc1cc(OCC)cc(C(=O)Nc2nc3ccc(OC)cc3s2)c1 [SW202776-1] | – | 8.15 µM | – | – | – | 4.56 µM | 15.3 µM | – | 46.2 µM | – | – | – | – | – | – | –
22 | O=C(c1ccc(O)cc1)c1ccc(NC(=O)c2sc3ccccc3c2Cl)cc1 [SW202856-1] | 33.8 µM | 12.8 µM | 6.08 µM | 44.5 µM | 1.06 µM | 48.4 µM | 4.76 µM | – | 20.4 µM | 40.2 µM | 13.6 µM | – | 13.3 µM | 40.6 µM | – | –
23 | CCOC(=O)c1c(NC(=O)c2ccc(F)cc2)sc2c1CCCC2 [SW202859-1] | – | 31.4 µM | 38.2 µM | – | – | – | – | – | – | – | 47.1 µM | – | – | – | – | –
24 | O=C(Nc1nc2ccc(O)cc2s1)c1c(F)ccc(O)c1F [SW202860-1] | 4.05 µM | 44.9 µM | – | 47.8 µM | 15.1 µM | 18.1 µM | 41.7 µM | – | 49.2 µM | – | 35.6 µM | – | 47.5 µM | 42.6 µM | – | –

— patent US9789096B2, “Methods and compositions for selective and targeted cancer therapy” (Board of Regents of the University of Texas System, priority 2013, dated 2017)
